Measurements published in patent publication US20110262360A1, “Compositions Comprising Enzyme-Cleavable Phenol-Modified Opioid Prodrugs and Inhibitors Thereof” (priority 2010, published 2011).
Several values for one entry are separate records, joined by “and”; a condition that tells them apart may be missing. Identical values can stand only once. Entries after “also recorded” stand apart in the source; their conditions may differ. Like-named read-outs stand apart in the source and are kept apart here.

Columns and labels:
[1] = Oral administration of Compound PC-1 and SBTI trypsin inhibitor to rats: hydromorphone in blood; conditions: for Cmax of hydromorphone in rat blood: PC-1 20 mg/kg PO
[2] = Oral administration of Compound PC-1 and SBTI in the presence of ovalbumin to rats: hydromorphone in plasma; conditions: for Cmax of hydromorphone in rat plasma: PC-1 20 mg/kg PO; for plasma Tmax of hydromorphone: rats; for Effect on Compound PC-1's ability to release hydromorphone: rats PO, PC-1 20 mg/kg with ovalbumin and/or SBTI
Method: In an effort to understand the role of SBTI, ovalbumin was used as a non-trypsin inhibitor protein control. Albumin from chicken egg white (ovalbumin) (Catalog No. A7641, Grade VII, lyophilized powder, Sigma-Aldrich) was dissolved in saline.

[3] = Oral administration of Compound PC-1 and BBSI inhibitor to rats: hydromorphone in blood; conditions: PC-1 20 mg/kg PO
[4] = target: T1, trypsin from bovine pancreas (Bos taurus, UniProt P00760); assay: In vitro trypsin conversion of prodrugs to hydromorphone and inhibition by trypsin inhibitor
T1 sequence (P00760 24-246): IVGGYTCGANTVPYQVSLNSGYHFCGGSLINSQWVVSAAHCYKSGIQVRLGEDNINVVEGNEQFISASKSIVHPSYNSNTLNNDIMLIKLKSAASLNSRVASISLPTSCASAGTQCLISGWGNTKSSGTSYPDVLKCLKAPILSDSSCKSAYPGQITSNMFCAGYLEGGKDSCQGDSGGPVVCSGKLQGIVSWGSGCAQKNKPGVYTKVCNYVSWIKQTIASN
Method: The reactions were conducted at 37° C. for 24 hr. Samples were collected at specified time points, transferred into 0.5% formic acid in acetonitrile to stop trypsin activity and stored at less than −70° C. until analysis by LC-MS/MS.
The results are expressed as half-life of prodrug when exposed to trypsin (i.e., Prodrug trypsin half-life) in hours and rate of formation of HM per unit of trypsin.

[5] = Oral administration of Compound PC-2 and SBTI to rats: hydromorphone in plasma; conditions: for Cmax of hydromorphone in rat plasma: PC-2 20 mg/kg PO
[6] = for Cmax of hydromorphone in rat plasma / Tmax of hydromorphone in rat plasma: PC-3 20 mg/kg PO
[7] = PC-3 20 mg/kg PO
[8] = for Cmax of HM in rat plasma / Tmax of HM in rat plasma: PC-4 20 mg/kg PO
[9] = PC-4 20 mg/kg PO
[10] = target: T2, trypsin (Bos taurus, UniProt P00760); assay: In vitro IC50, modified trypsin assay; assay type: biochemical
T2 sequence (P00760 24-246): T1 sequence (P00760 24-246)

[11] = No trypsin inhibitor, 0.761 mM prodrug, 37° C., Tris pH 8

In the case of `CC(=O)NC(CCCNC(=N)N)C(=O)NCCN(C)C(=O)Oc1ccc2c3c1OC1C(=O)CCC4C(C2)N(C)CCC314` (stereo not drawn) [Compound PC-1, Hydromorphone 3-(N-methyl-N-(2-N′-acetylarginylamino)) ethylcarbamate], the “Cmax of hydromorphone in rat blood” value ([1]; SBTI 0 mg/kg) is reported as 16.5 ± 5.3 ng/mL, the “Cmax of hydromorphone in rat blood” value ([1]; SBTI 10 mg/kg) is reported as 8.9 ± 1.8 ng/mL and the “Cmax of hydromorphone in rat blood” value ([1]; SBTI 100 mg/kg) is reported as 6.0 ± 4.0 ng/mL. For the same molecule, the “Cmax of hydromorphone in rat blood” value ([1]; SBTI 500 mg/kg) was less than 5 ng/mL, the “Cmax of hydromorphone in rat blood” value ([1]; SBTI 1000 mg/kg) was less than 5 ng/mL and the “Cmax of hydromorphone in rat plasma” value ([2]; OVA 0 mg/kg, SBTI 0 mg/kg) was 13.3 ± 3.7 ng/mL. The “Cmax of hydromorphone in rat plasma” value ([2]; OVA 20 mg/kg, SBTI 0 mg/kg) was 11.0 ± 5.4 ng/mL, the “Cmax of hydromorphone in rat plasma” value ([2]; OVA 100 mg/kg, SBTI 0 mg/kg) was 9.7 ± 3.1 ng/mL and the “Cmax of hydromorphone in rat plasma” value ([2]; OVA 500 mg/kg, SBTI 0 mg/kg) was 11.6 ± 2.5 ng/mL. The “Cmax of hydromorphone in rat plasma” value ([2]; OVA 500 mg/kg, SBTI 500 mg/kg) was 1.9 ± 0.9 ng/mL, the “Cmax of hydromorphone in rat plasma” value ([2]; OVA 1000 mg/kg, SBTI 0 mg/kg) was 10.3 ± 3.5 ng/mL and the “plasma Tmax of hydromorphone” value ([2]; 20 mg/kg Compound PC-1 alone) was 2.3 h. For the same molecule, the “plasma Tmax of hydromorphone” value ([2]; 20 mg/kg Compound PC-1 with 500 mg/kg OVA and 500 mg/kg SBTI) was 8.0 h, the “Cmax of hydromorphone in rat blood” value ([3]; BBSI 0 mg/kg, n = 4) was 16.5 ± 5.3 ng/mL and the “Cmax of rat not included in n = 3 analysis” value ([3]; BBSI 100 mg/kg, individual rat, blood) was 43 ng/mL. For the same molecule, the “Cmax of hydromorphone in rat blood” value ([3]; BBSI 100 mg/kg, n = 3 (3 of the 4 rats)) was 10.6 ± 5.9 ng/mL, the “Cmax of hydromorphone in rat blood” value ([3]; BBSI 100 mg/kg, n = 4) was 18.7 ± 17.0 ng/mL and the “Cmax range of other rats” value ([3]; BBSI 100 mg/kg, the 3 other rats, blood) was 6.8 to 17 ng/mL. For the same molecule, the “Rate of HM formation, umols/h/umol trypsin Average ± sd” value [4, 11] was 230 ± 8 umols/h/umol trypsin.

With `CN(CCNC(=O)[C@@H](N)CCCNC(=N)N)C(=O)Oc1ccc2c3c1OC1C(=O)CCC4C(C2)N(C)CCC314` (stereo partly drawn) [Compound PC-2, [2-((S)-2-amino-5-guanidino-pentanoylamino)-ethyl]-methyl-carbamic acid hydromorphyl ester] the “Cmax of hydromorphone in rat plasma” value ([5]; SBTI 0 mg/kg) was 14.2 ± 2.6 ng/mL and the “Cmax of hydromorphone in rat plasma” value ([5]; SBTI 500 mg/kg) was 7.3 ± 3.5 ng/mL.

In the case of `CC(=O)N[C@@H](CCCCN)C(=O)NCCN(C)C(=O)Oc1ccc2c3c1OC1C(=O)CCC4C(C2)N(C)CCC314` (stereo partly drawn) [Compound PC-3, (S)-2-Acetylamino-6-amino-hexanoic acid (2-methylamino-ethyl)-amide hydromorphone ester], the “Cmax of hydromorphone in rat plasma” value ([6]; SBTI 0 mg/kg) is reported as 9.0 ± 3.1 ng/mL, the “Tmax of hydromorphone in rat plasma” value ([6]; SBTI 0 mg/kg) is reported as 2.3 h and the “Cmax of hydromorphone in rat plasma” value ([6]; SBTI 500 mg/kg) is reported as 2.3 ± 1.7 ng/mL. For the same molecule, the “Tmax of hydromorphone in rat plasma” value ([6]; SBTI 500 mg/kg) was 7.3 h, the “Cmax of HM in rat plasma” value ([7]; Compound 101 0 mg/kg) was 9.0 ± 3.1 ng/mL and the “Tmax of HM in rat plasma” value ([7]; Compound 101 0 mg/kg) was 2.3 h. The “Cmax of HM in rat plasma” value ([7]; Compound 101 10 mg/kg) was 3.8 ± 2.9 ng/mL and the “Tmax of HM in rat plasma” value ([7]; Compound 101 10 mg/kg) was 3.5 h.

For `CCN(CCNC(=O)[C@H](CCCNC(=N)N)NC(C)=O)C(=O)Oc1ccc2c3c1OC1C(=O)CCC4C(C2)N(C)CCC314` (stereo partly drawn) [Compound PC-4, [2-((S)-2-Acetylamino-5-guanidino-pentanoylamino)-ethyl]-ethyl-carbamic acid hydromorphone ester], the “Cmax of HM in rat plasma” value ([8]; SBTI 0 mg/kg, n = 7) was 7.7 ± 2.3 ng/mL, the “Tmax of HM in rat plasma” value ([8]; SBTI 0 mg/kg, n = 7) was 2.3 h and the “Cmax of HM in rat plasma” value ([8]; SBTI 500 mg/kg, n = 4) was 7.5 ± 2.1 ng/mL. For the same molecule, the “Tmax of HM in rat plasma” value ([8]; SBTI 500 mg/kg, n = 4) was 6.5 h, the “Cmax of HM in rat plasma” value ([9]; Compound 101 0 mg/kg, n = 7) was 7.7 ± 2.3 ng/mL and the “Tmax of HM in rat plasma” value ([9]; Compound 101 0 mg/kg, n = 7) was 2.3 h. For the same molecule, the “Cmax of HM in rat plasma” value ([9]; Compound 101 10 mg/kg, n = 4) was 4.8 ± 1.4 ng/mL, the “Tmax of HM in rat plasma” value ([9]; Compound 101 10 mg/kg, n = 4) was 6.0 h and the “Rate of HM formation, umols/h/umol trypsin Average ± sd” value [4, 11] was 322 umols/h/umol trypsin and 243 ± 1 umols/h/umol trypsin. For the same molecule, the “Rate of HM formation, umols/h/umol trypsin Average ± sd” value ([4]; With trypsin inhibitor 3,089 uM Compound 109) was 3.27 ± 1.87 umols/h/umol trypsin.

In the case of `CCN(CCNC(=O)[C@H](CCCCN)NC(=O)CC(=O)O)C(=O)Oc1ccc2c3c1O[C@H]1C(=O)CC[C@H]4[C@@H](C2)N(C)CC[C@]314` [Compound PC-5, [2-((S)-2-malonylamino-4-amino-pentanoylamino)-ethyl]-ethyl-carbamic acid hydromorphone ester], the “Rate of HM formation, umols/h/umol trypsin Average ± sd” value [4, 11] is reported as 106 ± 2 umols/h/umol trypsin.

For `CCN(CCNC(=O)C(CCCNC(=N)N)NC(=O)CC(=O)O)C(=O)Oc1ccc2c3c1OC1C(=O)CCC4C(C2)N(C)CCC314` (stereo not drawn) [Compound PC-6, [2-(2-Malonyl-5-guanidino-pentanoylamino)-ethyl]-ethyl-carbamic acid hydromorphone ester], the “Rate of HM formation, umols/h/umol trypsin Average ± sd” value [4, 11] was 262 ± 11 umols/h/umol trypsin.

B1: ovalbumin: Albumin from chicken egg white, used as a non-trypsin inhibitor protein control (protein, UniProt P01012 2-386, looked up)
Ovalbumin: GSIGAASMEFCFDVFKELKVHHANENIFYCPIAIMSALAMVYLGAKDSTRTQINKVVRFDKLPGFGDSIEAQCGTSVNVHSSLRDILNQITKPNDVYSFSLASRLYAEERYPILPEYLQCVKELYRGGLEPINFQTAADQARELINSWVESQTNGIIRNVLQPSSVDSQTAMVLVNAIVFKGLWEKAFKDEDTQAMPFRVTEQESKPVQMMYQIGLFRVASMASEKMKILELPFASGTMSMLVLLPDEVSGLEQLESIINFEKLTEWTSSNVMEERKIKVYLPRMKMEEKYNLTSVLMAMGITDVFSSSANLSGISSAESLKISQAVHAAHAEINEAGREVVGSAEAGVDAASVSEEFRADHPFLFCIKHIATNAVLFFGRCVSP
With B1 the “Effect on Compound PC-1's ability to release hydromorphone” value [2] was “does not significantly affect Compound PC-1's ability to release hydromorphone”.

B2: SBTI: trypsin inhibitor from Glycine max (soybean) (Catalog No. 93620, ˜10,000 units per mg, Sigma-Aldrich) (protein, UniProt P01070 25-205, looked up)
Trypsin inhibitor A: DFVLDNEGNPLENGGTYYILSDITAFGGIRAAPTGNERCPLTVVQSRNELDKGIGTIISSPYRIRFIAEGHPLSLKFDSFAVIMLCVGIPTEWSVVEDLPEGPAVKIGENKDAMDGWFRLERVSDDEFNNYKLVFCPQQAEDDKCGDIGISIDHDDGTRRLVVSKNKPLVVQFQKLDKESL
With B2 the “Effect of SBTI on Compound PC-1's ability to release hydromorphone” value ([1]; rats PO, PC-1 20 mg/kg with 10, 100, 500 or 1000 mg/kg SBTI) was “attenuates Compound PC-1's ability to release hydromorphone in a dose-dependent manner that can approach approximately 100% attenuation at higher SBTI concentrations; also recorded: suppresses Cmaxand delays Tmax”, the “Effect on Compound PC-1's ability to release hydromorphone” value [2] was “suppresses Cmaxand delays Tmax of such hydromorphone in plasma, even in the presence of ovalbumin; also recorded: acting specifically by inhibiting trypsin rather than in a non-specific manner” and the “Effect of SBTI on Compound PC-2's ability to release hydromorphone” value ([5]; rats PO, PC-2 20 mg/kg with 500 mg/kg SBTI) was “attenuates Compound PC-2's ability to release hydromorphone, both with respect to suppressing Cmaxand delaying Tmax”. The “Effect of SBTI on Compound PC-3's ability to release hydromorphone” value ([6]; rats PO, PC-3 20 mg/kg with 500 mg/kg SBTI) was “attenuates Compound PC-3's ability to release hydromorphone, both with respect to suppressing Cmaxand delaying Tmax”, the “Effect of SBTI on Compound PC-4's ability to release hydromorphone” value ([8]; rats PO, PC-4 20 mg/kg with 500 mg/kg SBTI) was “attenuates Compound PC-4's ability to release hydromorphone, at least with respect to delaying Tmax” and the IC50 [10] was 270 nM.
